For orientation: IC50 means the midpoint of a concentration-inhibition curve.

Results on 3 molecules are retold here after PMC3315833 (Tetrahedron, 2012).

Data set [1] relates to MCF-7 breast cancer cells. The data set is described as follows: Cytotoxicity against MCF-7 cells. To be noted: read-out: IC50, cytotoxicity against MCF-7 cells.
Another data set concerns HT-29 colon cancer cells. The data set is described as follows: Cytotoxicity against HT-29 cells. Particulars: read-out: IC50, cytotoxicity against HT-29 cells.
Data set [2] is described as follows: Structural stability in DMSO-d6. In kind it is physicochemical.

Turning to `C=C[C@]1(C)CC[C@H]2C(=C1C#N)c1c([nH]c3ccccc13)C2(C)C` (relative stereo) [Compound 2, deschloro 12-epi-fischerindole I nitrile], the half-maximal inhibitory concentration (IC50) was more than 40 µM in data set [1] and 23 µM with HT-29 colon cancer cells. `C=C[C@]1(C)CCc2cc(C)c3[nH]c4ccccc4c3c2[C@@H]1C#N` (relative stereo) [Compound 4, deschloro 12-epi-fischerindole W nitrile]: the “structural stability in DMSO-d6” value in data set [2] was “structurally unstable”. With `C=C[C@]1(C)[C@H](Cl)Cc2cc(C)c3[nH]c4ccccc4c3c2[C@@H]1C#N` (relative stereo) [Compound 3, 12-epi-fischerindole W nitrile], the “structural stability in DMSO-d6” value in data set [2] is given as “structurally unstable”.
